Laboratory results published in PubChem BioAssay AID449762 (Southern Research Specialized Biocontainment Screening …, 2010).
Results filed as inconclusive are left out.

System: M. tuberculosis H37Rv growth inhibition, 7H9 media
Assay: M. tuberculosis growth inhibition, HTS (AID 449762);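 also: bacterial growth assessed after seven days of incubation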
Conditions: for IC90: measured here: IC90 growth inhibition

Q: For `COCCCn1c(SCc2cccc(OC)c2)nc2cc(OC)c(OC)cc2c1=N`, which IC50 is on record?
A: The IC50 was 37 µM.

Q: And the IC90?
A: The IC90 was 49 µM.

Q: `N#C/C=C\Oc1ccc(Cl)cc1N` was tested. Which IC50 did it give?
A: The IC50 was 14 µM.

Q: And the IC90?
A: The IC90 was 23.3 µM.

Q: For `CN1CCc2cc3c(c4c2C1Cc1ccccc1-4)OCO3` (stereo not drawn), which IC50 is on record?
A: The IC50 was 1.66 µM.

Q: What about the IC90 of the same compound?
A: The IC90 was 1.94 µM.

Q: With `Oc1cccc(-c2nc3ccc4ccccc4c3c3c2CCC3)c1` as the compound, how does the IC50 read?
A: The IC50 was 7.31 µM.

Q: And the IC90?
A: The IC90 was 26.8 µM.

Q: Which results are given for `CCc1nc(N2CCN(C(C)=O)CC2)c2c3c(sc2n1)CC(C(C)(C)C)CC3` (stereo not drawn)?
A: IC50: 12.8 µM; IC90: 14.1 µM

Q: For `c1ccc(C[C@H]2CN=C(Nc3ccccc3)N2CCCC2CCCC2)cc1`, which IC50 is on record?
A: The IC50 was 31.4 µM.

Q: And the IC90?
A: Its IC90 is 48.5 µM.

Q: With `CCOC(=O)CNC(=S)n1cnc(N)n1` as the compound, how does the IC50 read?
A: The IC50 was 27.8 µM.

Q: What about the IC90 of the same compound?
A: Its IC90 is 60.6 µM.

Q: `Cc1cc(-c2cc(-c3ccccc3)on2)nc(NC2CCCC2)n1` was tested. Which IC50 did it give?
A: Its IC50 is 45.8 µM.

Q: What about the IC90 of the same compound?
A: Its IC90 is 53.9 µM.

Q: `CCCOc1ccc(C(=O)NC(=S)NCc2cccnc2)cc1` was tested. Which IC50 did it give?
A: The IC50 was 21.2 µM.

Q: What about the IC90 of the same compound?
A: Its IC90 is 28 µM.

Q: What does the source list for `CC(/C=N/NC(=O)c1cc(-c2ccc3ccccc3c2)n[nH]1)=C\c1ccco1`?
A: IC50: 29 µM; IC90: 51.2 µM

Q: For `O=C(O)c1[nH]c(=O)[nH]c(=O)c1F`, which IC50 is on record?
A: Its IC50 is 4.58 µM.

Q: And the IC90?
A: The IC90 was 14.2 µM.

Q: Which results are given for `CCCCCc1ccc(S(=O)(=O)NCCc2ccncc2)cc1`?
A: IC50: 34.1 µM; IC90: 42.8 µM

Q: How did the IC50 turn out when `S=C(Nc1ccc(Cl)cc1)NC1CC2CCC(C1)N2Cc1ccccc1` (stereo not drawn) was run?
A: Its IC50 is 10.9 µM.

Q: What about the IC90 of the same compound?
A: Its IC90 is 14.8 µM.

Q: `COc1cc2c(cc1OC)C1(Nc3c-2c(-c2ccccc2)nn3-c2ccccc2)C(=O)Nc2ccccc21` (stereo not drawn) was tested. Which IC50 did it give?
A: The IC50 was 90.5 µM.

Q: And the IC90?
A: The IC90 was greater than 100 µM.

Q: For `O=Nc1c2nc3ccccc3n(O)c-2c2ccccc12`, which IC50 is on record?
A: The IC50 was 10.7 µM.

Q: What about the IC90 of the same compound?
A: Its IC90 is 15.7 µM.

Q: Which IC50 does the source give for `Nc1c(C(=O)O)cnc2c(-c3ccc(Cl)cc3)cnn12` here?
A: Its IC50 is 25.5 µM.

Q: And the IC90?
A: Its IC90 is 55.6 µM.

Q: Which results are given for `COC(=O)C1CC(=O)N(c2ccc(OCc3ccccc3Cl)cc2)C1` (stereo not drawn)?
A: IC50: 0.52 µM; IC90: 3.52 µM

Q: `O=C(Nc1nc2c(s1)CCCC2)c1cc(-c2ccc3c(c2)OCO3)nc2ccccc12` was tested. Which IC50 did it give?
A: The IC50 was 66 µM.

Q: What about the IC90 of the same compound?
A: Its IC90 is greater than 100 µM.

Q: With `O=C(CSC(=S)N1CCCC1)c1cc(Br)cc(Br)c1O` as the compound, how does the IC50 read?
A: The IC50 was 23.9 µM.

Q: And the IC90?
A: Its IC90 is 36.6 µM.

Q: `COc1ccc(-c2c[n+]3c4n2CCCCC4=C(c2ccccc2)C3)cc1` was tested. Which IC50 did it give?
A: Its IC50 is 35.5 µM.

Q: What about the IC90 of the same compound?
A: The IC90 was 43.7 µM.

Q: With `Cc1cc(OCc2cc(C(=O)N(C)CCc3cnn(C)c3)no2)cc(C)c1Cl` as the compound, how does the IC50 read?
A: Its IC50 is 26.9 µM.

Q: What about the IC90 of the same compound?
A: The IC90 was 51.4 µM.

Q: With `CCOC(=O)C1(CCOc2ccccc2)CCN(Cc2cccc(-n3cccn3)c2)CC1` as the compound, how does the IC50 read?
A: The IC50 was 25.4 µM.

Q: And the IC90?
A: The IC90 was 28.8 µM.

Q: Which results are given for `Cc1ccc(C)c(-c2nnc(NC(=O)C3=COCCO3)o2)c1`?
A: IC50: 5.33 µM; IC90: 12.2 µM

Q: Which IC50 does the source give for `COc1cccc(-n2nnc3c(=O)n(CC(=O)N4CCC(Cc5ccccc5)CC4)cnc32)c1` here?
A: Its IC50 is 23.2 µM.

Q: What about the IC90 of the same compound?
A: Its IC90 is 36.7 µM.

Q: Which IC50 does the source give for `NC(=O)c1cccn1-c1ncc(C(F)(F)F)cc1Cl` here?
A: Its IC50 is 6.8 µM.

Q: What about the IC90 of the same compound?
A: The IC90 was 16.6 µM.

Q: Which IC50 does the source give for `O=C(CCCCCNc1nc(=S)[nH]c2ccccc12)N1CCN(c2ccccn2)CC1` here?
A: Its IC50 is 40.9 µM.

Q: What about the IC90 of the same compound?
A: Its IC90 is greater than 100 µM.

Q: How did the IC50 turn out when `Cc1ccc(C2=NNC3(CCOC(C)(C)C3)S2)cc1` (stereo not drawn) was run?
A: Its IC50 is 11.1 µM.

Q: And the IC90?
A: The IC90 was 14.9 µM.

Q: Which results are given for `Cc1cccc(N2CCN(CCCNC(=O)c3ccc(NC(=O)C4=CSCCO4)cc3)CC2C)c1` (stereo not drawn)?
A: IC50: 19.7 µM; IC90: 29.2 µM

Q: What does the source list for `c1ccc(-c2nc3nonc3nc2-c2ccccc2)cc1`?
A: IC50: 33.5 µM; IC90: 43.9 µM

Q: `CC(C)Cn1c([N+](=O)[O-])nc2c1c(=O)[nH]c(=O)n2C` was tested. Which IC50 did it give?
A: The IC50 was 5.93 µM.

Q: What about the IC90 of the same compound?
A: Its IC90 is 8.91 µM.

Q: `COc1ccccc1/C=N/NC(=O)NC12CC3CC(CC(C3)C1)C2` was tested. Which IC90 did it give?
A: The IC90 was greater than 100 µM.

Q: Which IC50 does the source give for `O=C1C=C(c2ccc3[nH]ccc3c2)C[C@@H](c2ccc(Cl)cc2)C1` here?
A: The IC50 was 75.3 µM.

Q: What about the IC90 of the same compound?
A: The IC90 was greater than 100 µM.

Q: With `Cc1ccc(Nc2nc(N)nc(CN3CCc4ccccc4C3)n2)cc1` as the compound, how does the IC50 read?
A: Its IC50 is 2.2 µM.

Q: What about the IC90 of the same compound?
A: Its IC90 is 8.89 µM.

Q: Which IC50 does the source give for `Cc1ccc2nc(=O)c(NNc3ccccc3)cnc2c1` here?
A: Its IC50 is 16.5 µM.

Q: And the IC90?
A: The IC90 was greater than 100 µM.

Q: What does the source list for `Cc1c(Cl)cccc1NC(=O)CN1CCC(C(O)(c2ccccc2)c2ccccc2)CC1`?
A: IC50: 36.1 µM; IC90: > 100 µM

Q: `O=S(=O)(Nc1ccn(-c2ccccc2)n1)c1ccc(Br)cc1` was tested. Which IC50 did it give?
A: Its IC50 is 95.4 µM.

Q: And the IC90?
A: Its IC90 is greater than 100 µM.

Q: How did the IC50 turn out when `O=C(NNc1nc2ccccc2s1)c1ccccc1F` was run?
A: The IC50 was 22.2 µM.

Q: And the IC90?
A: Its IC90 is greater than 100 µM.
